In patent US12662469B2 (SIRONAX LTD, priority 2018, dated 2026):
Read-outs that look alike come from different tables or passages of the source.

How the values were obtained:
[1] = biological target: T1, Human RIP1 kinase (Homo sapiens, UniProt Q13546); experiment: Human RIP1 kinase assay; assay type: biochemical; conditions: representative, exemplary data
T1 sequence (Q13546 1-671): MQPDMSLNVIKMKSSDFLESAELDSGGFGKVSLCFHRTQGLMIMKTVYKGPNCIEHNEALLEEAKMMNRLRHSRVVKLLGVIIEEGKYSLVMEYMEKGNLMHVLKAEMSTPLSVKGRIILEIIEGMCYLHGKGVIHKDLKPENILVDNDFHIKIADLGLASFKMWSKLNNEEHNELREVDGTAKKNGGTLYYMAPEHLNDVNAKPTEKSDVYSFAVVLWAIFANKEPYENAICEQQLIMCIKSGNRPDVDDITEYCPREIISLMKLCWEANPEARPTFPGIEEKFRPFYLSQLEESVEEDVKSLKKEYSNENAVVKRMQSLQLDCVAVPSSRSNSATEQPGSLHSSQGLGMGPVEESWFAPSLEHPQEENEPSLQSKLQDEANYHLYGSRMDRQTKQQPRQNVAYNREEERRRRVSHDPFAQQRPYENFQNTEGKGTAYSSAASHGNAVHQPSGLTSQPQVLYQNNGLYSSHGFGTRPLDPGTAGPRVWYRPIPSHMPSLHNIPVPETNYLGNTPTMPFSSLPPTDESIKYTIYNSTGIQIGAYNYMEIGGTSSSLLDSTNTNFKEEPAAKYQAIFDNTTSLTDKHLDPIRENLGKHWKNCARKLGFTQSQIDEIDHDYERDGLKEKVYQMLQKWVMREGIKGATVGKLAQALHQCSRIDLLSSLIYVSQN

[2] = tested on: Cell Necrosis; experiment: Cell necrosis assay / cell viability assay (necrosis inhibitor activity); assay type: cell-based
[3] = necrosis inhibitor activity, EC data for 14-191 extrapolated, read-out: EC50
[4] = representative, exemplary data, read-out: Cell viability assay, EC50
[5] = necrosis inhibitor activity, compounds outside 14-191, read-out: EC50

O=C(N1CC(Cc2cccc(F)c2)C1)N1N=CCC1c1ccccc1 (stereo not shown) [Compound 41, (3-(3-fluorobenzyl)azetidin-1-yl)(5-phenyl-4,5-dihydro-1H-pyrazol-1-yl)methanone]
IC50 [1]: < 0.1 µM
EC50 [2, 3]: 0.001 to 1 µM
EC50 [2, 4]: 0.001 to 0.1 µM

O=C(NC1Cc2ccccc2C1)N1N=CCC1c1ccccc1 (stereo not shown) [Compound 14, N-(2,3-dihydro-H-inden-2-yl)-5-phenyl-4,5-dihydro-1H-pyrazole-1-carboxamide]
IC50 [1]: 0.1 to 1 µM
EC50 [2, 3]: 0.001 to 1 µM
EC50 [2, 4]: 0.001 to 1 µM

O=C(N1CC(Oc2ccc(F)cc2F)C1)N1OCC[C@H]1c1ccccc1 [Compound 80, (S)-(3-(2,4-difluorophenoxy)azetidin-1-yl)(3-phenylisoxazolidin-2-yl)methanone]
IC50 [1]: < 0.1 µM
EC50 [2, 3]: 0.001 to 1 µM
EC50 [2, 4]: 0.001 to 0.1 µM

O=C(N1CC[C@@H](Oc2ccccc2)C1)N1N=CCC1c1ccccc1 (single isomer, unassigned) [Compound 26B]
IC50 [1]: > 1 µM
EC50 [2, 3]: 1 to 10 µM
EC50 [2, 4]: > 1 µM

O=C(N1CC[C@@H](Oc2ccccc2)C1)N1N=CCC1c1ccccc1 (single isomer, unassigned) [Compound 26A]
IC50 [1]: < 0.1 µM
EC50 [2, 3]: 0.001 to 1 µM
EC50 [2, 4]: 0.001 to 1 µM

NC(=O)c1csc(OC2CN(C(=O)N3N=CCC3c3cc(F)cc(F)c3)C2)n1 (stereo not shown) [Compound 132, 2-((1-(5-(3,5-difluorophenyl)-4,5-dihydro-1H-pyrazole-1-carbonyl)azetidin-3-yl)oxy)thiazole-4-carboxamide]
IC50 [1]: < 0.1 µM
EC50 [2, 3]: 0.001 to 1 µM
EC50 [2, 4]: 0.001 to 0.1 µM

O=C(N1CC(Oc2ccc(F)cc2F)C1)N1N=CCC1c1cc(F)cc(F)c1 (stereo not shown) [Compound 76, (3-(2,4-difluorophenoxy)azetidin-1-yl)(5-(3,5-difluorophenyl)-4,5-dihydro-1H-pyrazol-1-yl)methanone]
IC50 [1]: < 0.1 µM
EC50 [2, 3]: 0.001 to 1 µM
EC50 [2, 4]: 0.001 to 0.1 µM

O=C(N1CCC1)N1N=CCC1c1ccccc1 (stereo not shown) [Compound 1, azetidin-1-yl(5-phenyl-4,5-dihydro-1H-pyrazol-1-yl)methanone]
IC50 [1]: ~1 µM
EC50 [2, 5]: 1 to 10 µM
EC50 [2, 4]: 0.001 to 10 µM

O=C(N1CC(Nc2ccc(F)cc2F)C1)N1N=CCC1c1cc(F)cc(F)c1 (stereo not shown) [Compound 255, (5-(3,5-difluorophenyl)-4,5-dihydro-1H-pyrazol-1-yl)(3-((2,4-difluorophenyl)amino)azetidin-1-yl)methanone]
EC50 [2, 5]: 0.001 to 1 µM

N#Cc1ccnc(O[C@@H]2CCN(C(=O)N3N=CC[C@H]3c3cc(F)cc(F)c3)C2)n1 [Compound 359, 2-(((R)-1-((S)-5-(3,5-difluorophenyl)-4,5-dihydro-1H-pyrazole-1-carbonyl)pyrrolidin-3-yl)oxy)pyrimidine-4-carbonitrile]
EC50 [2, 5]: 0.001 to 1 µM

O=C(N1CC(Oc2ccc3cn[nH]c3c2)C1)N1N=CC[C@H]1c1cc(F)cc(F)c1 [Compound 207]
EC50 [2, 5]: 0.001 to 1 µM

O=C(N1CC(Oc2ccc(F)c(F)c2)C1)N1N=CCC1c1ccccc1 (stereo not shown) [Compound 66, (3-(3,4-difluorophenoxy)azetidin-1-yl)(5-phenyl-4,5-dihydro-1H-pyrazol-1-yl)methanone]
EC50 [2, 3]: 0.001 to 1 µM
